ChEMBL document CHEMBL4482311, “Modulators of Prostate-Specific G-Protein Receptor (PSGR/OR51E2) and Methods of Using Same” (2018)
Active and inactive are the calls of the source.

What was measured:
Type in all cases: cell-based
[1] = molecular target: T1, Olfactory receptor 51E2 (Homo sapiens) (UniProt Q9H255); experiment: Agonist activity at PSGR/OR51E2 in human LNCaP cells assessed as induction of change in intracellular metabolites level by measuring threonine level at 250 uM incubated for 72 hrs by GC/MS analysis
T1 sequence (whole entry): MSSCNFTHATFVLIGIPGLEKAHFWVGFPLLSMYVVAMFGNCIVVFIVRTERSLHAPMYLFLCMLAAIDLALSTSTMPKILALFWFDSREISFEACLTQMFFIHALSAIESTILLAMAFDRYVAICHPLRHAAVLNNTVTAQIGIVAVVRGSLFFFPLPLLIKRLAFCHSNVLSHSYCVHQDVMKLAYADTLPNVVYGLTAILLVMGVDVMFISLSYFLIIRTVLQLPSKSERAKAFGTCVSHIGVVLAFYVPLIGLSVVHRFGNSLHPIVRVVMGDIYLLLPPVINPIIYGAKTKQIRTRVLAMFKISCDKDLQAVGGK

[2] = molecular target: T1, Olfactory receptor 51E2 (Homo sapiens); experiment: Agonist activity at PSGR/OR51E2 in human LNCaP cells assessed as induction of change in extracellular metabolites level by measuring asparagine level at 250 uM incubated for 72 hrs by GC/MS analysis
[3] = molecular target: T1, Olfactory receptor 51E2 (Homo sapiens); experiment: Agonist activity at PSGR/OR51E2 in human LNCaP cells assessed as induction of change in extracellular metabolites level by measuring guanine level at 250 uM incubated for 72 hrs by GC/MS analysis
[4] = molecular target: T1, Olfactory receptor 51E2 (Homo sapiens); experiment: Agonist activity at PSGR/OR51E2 in human LNCaP cells assessed as induction of change in intracellular metabolites level by measuring O-methylphosphate level at 250 uM incubated for 72 hrs by GC/MS analysis
[5] = molecular target: T1, Olfactory receptor 51E2 (Homo sapiens); experiment: Agonist activity at PSGR/OR51E2 in human LNCaP cells assessed as induction of change in intracellular metabolites level by measuring lactic acid level at 250 uM incubated for 72 hrs by GC/MS analysis
[6] = molecular target: T1, Olfactory receptor 51E2 (Homo sapiens); experiment: Agonist activity at PSGR/OR51E2 in human LNCaP cells assessed as induction of change in extracellular metabolites level by measuring phenylalanine level at 250 uM incubated for 72 hrs by GC/MS analysis
[7] = molecular target: T1, Olfactory receptor 51E2 (Homo sapiens); experiment: Agonist activity at PSGR/OR51E2 in human LNCaP cells assessed as induction of change in extracellular metabolites level by measuring glycine level at 250 uM incubated for 72 hrs by GC/MS analysis
[8] = molecular target: T1, Olfactory receptor 51E2 (Homo sapiens); experiment: Agonist activity at PSGR/OR51E2 in human LNCaP cells assessed as induction of change in extracellular metabolites level by measuring lactic acid level at 250 uM incubated for 72 hrs by GC/MS analysis
[9] = molecular target: T1, Olfactory receptor 51E2 (Homo sapiens); experiment: Agonist activity at PSGR/OR51E2 in human LNCaP cells assessed as induction of change in intracellular metabolites level by measuring beta-alanine level at 250 uM incubated for 72 hrs by GC/MS analysis
[10] = molecular target: T1, Olfactory receptor 51E2 (Homo sapiens); experiment: Agonist activity at PSGR/OR51E2 in human LNCaP cells assessed as induction of change in extracellular metabolites level by measuring glutamine level at 250 uM incubated for 72 hrs by GC/MS analysis
[11] = molecular target: T1, Olfactory receptor 51E2 (Homo sapiens); experiment: Agonist activity at PSGR/OR51E2 in human LNCaP cells assessed as induction of change in intracellular metabolites level by measuring glucose-6-phosphate level at 250 uM incubated for 72 hrs by GC/MS analysis
[12] = molecular target: T1, Olfactory receptor 51E2 (Homo sapiens); experiment: Agonist activity at PSGR/OR51E2 in human LNCaP cells assessed as induction of change in extracellular metabolites level by measuring xanthine level at 250 uM incubated for 72 hrs by GC/MS analysis
[13] = molecular target: T1, Olfactory receptor 51E2 (Homo sapiens); experiment: Agonist activity at PSGR/OR51E2 in human LNCaP cells assessed as induction of change in intracellular metabolites level by measuring ornithine level at 250 uM incubated for 72 hrs by GC/MS analysis
[14] = molecular target: T1, Olfactory receptor 51E2 (Homo sapiens); experiment: Agonist activity at PSGR/OR51E2 in human LNCaP cells assessed as induction of change in extracellular metabolites level by measuring tyrosine level at 250 uM incubated for 72 hrs by GC/MS analysis
[15] = molecular target: T1, Olfactory receptor 51E2 (Homo sapiens); experiment: Agonist activity at PSGR/OR51E2 in human LNCaP cells assessed as induction of change in intracellular metabolites level by measuring inosine level at 250 uM incubated for 72 hrs by GC/MS analysis
[16] = molecular target: T1, Olfactory receptor 51E2 (Homo sapiens); experiment: Agonist activity at PSGR/OR51E2 in human LNCaP cells assessed as induction of change in extracellular metabolites level by measuring threose/erythrose level at 250 uM incubated for 72 hrs by GC/MS analysis
[17] = molecular target: T1, Olfactory receptor 51E2 (Homo sapiens); experiment: Agonist activity at PSGR/OR51E2 in human LNCaP cells assessed as induction of change in extracellular metabolites level by measuring lysine level at 250 uM incubated for 72 hrs by GC/MS analysis
[18] = molecular target: T1, Olfactory receptor 51E2 (Homo sapiens); experiment: Agonist activity at PSGR/OR51E2 in human LNCaP cells assessed as induction of change in extracellular metabolites level by measuring glutaric acid level at 250 uM incubated for 72 hrs by GC/MS analysis
[19] = molecular target: T1, Olfactory receptor 51E2 (Homo sapiens); experiment: Agonist activity at PSGR/OR51E2 in human LNCaP cells assessed as induction of change in extracellular metabolites level by measuring uric acid level at 250 uM incubated for 72 hrs by GC/MS analysis
[20] = molecular target: T1, Olfactory receptor 51E2 (Homo sapiens); experiment: Agonist activity at PSGR/OR51E2 in human LNCaP cells assessed as induction of change in intracellular metabolites level by measuring malic acid level at 250 uM incubated for 72 hrs by GC/MS analysis
[21] = molecular target: T1, Olfactory receptor 51E2 (Homo sapiens); experiment: Agonist activity at PSGR/OR51E2 in human LNCaP cells assessed as induction of change in intracellular metabolites level by measuring 3-phosphoglyceric acid level at 250 uM incubated for 72 hrs by GC/MS analysis
[22] = molecular target: T1, Olfactory receptor 51E2 (Homo sapiens); experiment: Agonist activity at PSGR/OR51E2 in human LNCaP cells assessed as induction of change in intracellular metabolites level by measuring fumaric acid level at 250 uM incubated for 72 hrs by GC/MS analysis
[23] = molecular target: T1, Olfactory receptor 51E2 (Homo sapiens); experiment: Agonist activity at PSGR/OR51E2 in human LNCaP cells assessed as induction of change in intracellular metabolites level by measuring ethanolamine level at 250 uM incubated for 72 hrs by GC/MS analysis
[24] = molecular target: T1, Olfactory receptor 51E2 (Homo sapiens); experiment: Agonist activity at PSGR/OR51E2 in human LNCaP cells assessed as induction of change in intracellular metabolites level by measuring spermidine level at 250 uM incubated for 72 hrs by GC/MS analysis
[25] = molecular target: T1, Olfactory receptor 51E2 (Homo sapiens); experiment: Agonist activity at PSGR/OR51E2 in human LNCaP cells assessed as induction of change in extracellular metabolites level by measuring alanine level at 250 uM incubated for 72 hrs by GC/MS analysis
[26] = molecular target: T1, Olfactory receptor 51E2 (Homo sapiens); experiment: Agonist activity at PSGR/OR51E2 in human LNCaP cells assessed as induction of change in intracellular metabolites level by measuring oleic acid level at 250 uM incubated for 72 hrs by GC/MS analysis
[27] = molecular target: T1, Olfactory receptor 51E2 (Homo sapiens); experiment: Agonist activity at PSGR/OR51E2 in human LNCaP cells assessed as induction of change in intracellular metabolites level by measuring serine level at 250 uM incubated for 72 hrs by GC/MS analysis
[28] = molecular target: T1, Olfactory receptor 51E2 (Homo sapiens); experiment: Agonist activity at PSGR/OR51E2 in human LNCaP cells assessed as induction of change in extracellular metabolites level by measuring serine level at 250 uM incubated for 72 hrs by GC/MS analysis
[29] = molecular target: T1, Olfactory receptor 51E2 (Homo sapiens); experiment: Agonist activity at PSGR/OR51E2 in human LNCaP cells assessed as induction of change in extracellular metabolites level by measuring cystine level at 250 uM incubated for 72 hrs by GC/MS analysis
[30] = molecular target: T1, Olfactory receptor 51E2 (Homo sapiens); experiment: Agonist activity at PSGR/OR51E2 in human LNCaP cells assessed as induction of change in intracellular metabolites level by measuring pentonic-acids level at 250 uM incubated for 72 hrs by GC/MS analysis

Measured: Activity

COc1ccc(NC=O)c(C(=O)CCNC(C)=O)c1
active: all assays above
